{"source": "patent US5908832A", "about": "“Peptide analog” (University of Houston - Clearlake, priority 1991, dated 1999)", "key": {"[1]": {"test_system": "analgesic effects of morphine", "conditions": "in vivo; cited from earlier work"}, "[2]": {"test_system": "specific NPFF receptors", "conditions": "spinal cord membranes; cited from earlier work"}, "[3]": {"test_system": "opiate-naive rats", "conditions": "15 μg i.c.v.; cited from earlier work"}, "[4]": {"test_system": "morphine-dependent rats", "test": "Naloxone-precipitated abstinence in morphine-dependent rats", "type": "in vivo, Sprague-Dawley rats", "description": "Each rat was stereotaxically cannulated in the third ventricle under equithesin anesthesia. Cannula placements were subsequently confirmed by injection of methylene blue dye.\nDrugs for third ventricle injection were dissolved in isotonic saline.\nFollowing the rats way infusion period, rats were randomly divided into two treatment groups of seven rats each. Each rat received a third ventricular injection of either 600 ng daY8Ra in 30 μl saline or saline alone. Twenty-eight minutes after conclusion of the above injections, all rats were challenged by 10 μg naloxone HCl in 30 μl saline i.c.v.\nEach rat was subsequently observed for 20 minutes, commencing with the onset of naloxone challenge."}, "[5]": {"test_system": "morphine-dependent rats", "conditions": "2 μg i.c.v.; cited from earlier work"}}}
{"smiles": "CC(C)C[C@H](NC(=O)[C@@H](N)Cc1ccccc1)C(=O)N[C@@H](Cc1ccccc1)C(=O)N[C@@H](CCC(N)=O)C(=O)N1CCC[C@H]1C(=O)N[C@@H](CCC(N)=O)C(=O)N[C@@H](CCCNC(=N)N)C(=O)N[C@@H](Cc1ccccc1)C(N)=O", "note": "[NPFF, Phe-Leu-Phe-Gln-Pro-Gln-Arg-Phe-amide]", "values": [{"measurement": "effect on analgesic effects of morphine and certain endogenous opioid peptides", "setting": "[1]", "result": "potently antagonizes"}, {"measurement": "affinity of the 125I-Y8Fa binding site", "setting": "[2]", "result": "high affinity"}, {"measurement": "induction of quasi-morphine-abstinence syndrome (QMAS)", "setting": "[3]", "result": "induces a quasi-morphine-abstinence syndrome"}, {"measurement": "abstinence syndrome after naloxone challenge vs saline pretreatment (one-way ANOVA)", "setting": "[4]; 600 ng i.c.v. pretreatment, 10 μg naloxone HCl i.c.v., Example III", "result": "no significant differences among groups"}, {"measurement": "abstinence signs following the peptide injection itself (total frequency, M±SEM)", "setting": "[4]; morphine-dependent rats, 600 ng i.c.v., observed 14 minutes from onset of injection, before naloxone", "result": "3.67±0.99"}, {"measurement": "precipitation of opiate abstinence syndrome", "setting": "[5]", "result": "precipitates opiate abstinence syndrome"}]}
